Laboratory results as given in ChEMBL document CHEMBL1275330, “Rational design, synthesis, and evaluation of new selective inhibitors of microbial class II (zinc dependent) fructose bis-phosphate aldolases” (J Med Chem, 2010).
Several values for one entry are separate records, joined by “and”; a condition that tells them apart may be missing. Equal entries are not always repeated.

How the values were obtained:
[1] = molecular target: T1, Fructose-bisphosphate aldolase (Candida albicans (strain SC5314 / ATCC MYA-2876) (Yeast), UniProt Q9URB4); test: Inhibition of Candida albicans zinc dependent class 2 Fba
T1 sequence (Q9URB4 whole entry): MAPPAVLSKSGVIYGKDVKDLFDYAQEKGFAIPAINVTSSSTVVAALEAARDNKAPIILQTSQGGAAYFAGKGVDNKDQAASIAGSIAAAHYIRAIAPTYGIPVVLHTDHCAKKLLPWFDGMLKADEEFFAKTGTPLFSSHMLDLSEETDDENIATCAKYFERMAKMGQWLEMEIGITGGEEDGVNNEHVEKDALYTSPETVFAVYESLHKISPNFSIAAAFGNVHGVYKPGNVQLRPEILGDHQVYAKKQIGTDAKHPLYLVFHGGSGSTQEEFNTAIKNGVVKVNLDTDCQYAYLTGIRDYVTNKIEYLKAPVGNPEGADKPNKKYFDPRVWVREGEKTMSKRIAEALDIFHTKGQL

[2] = molecular target: T2, Fructose-bisphosphate aldolase A (Oryctolagus cuniculus, UniProt P00883)
T2 sequence (P00883 whole entry): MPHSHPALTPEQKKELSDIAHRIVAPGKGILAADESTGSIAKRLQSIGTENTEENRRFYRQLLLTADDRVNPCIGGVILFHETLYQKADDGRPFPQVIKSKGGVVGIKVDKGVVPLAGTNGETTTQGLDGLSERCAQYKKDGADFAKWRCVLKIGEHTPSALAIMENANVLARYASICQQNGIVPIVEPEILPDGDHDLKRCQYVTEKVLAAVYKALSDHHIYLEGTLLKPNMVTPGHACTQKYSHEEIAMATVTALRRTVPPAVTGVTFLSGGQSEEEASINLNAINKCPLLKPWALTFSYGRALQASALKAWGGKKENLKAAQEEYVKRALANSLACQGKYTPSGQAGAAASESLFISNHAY

[3] = molecular target: T3, Fructose-bisphosphate aldolase (Helicobacter pylori (strain ATCC 700392 / 26695) (Campylobacterpylori), UniProt P56109)
T3 sequence (P56109 whole entry): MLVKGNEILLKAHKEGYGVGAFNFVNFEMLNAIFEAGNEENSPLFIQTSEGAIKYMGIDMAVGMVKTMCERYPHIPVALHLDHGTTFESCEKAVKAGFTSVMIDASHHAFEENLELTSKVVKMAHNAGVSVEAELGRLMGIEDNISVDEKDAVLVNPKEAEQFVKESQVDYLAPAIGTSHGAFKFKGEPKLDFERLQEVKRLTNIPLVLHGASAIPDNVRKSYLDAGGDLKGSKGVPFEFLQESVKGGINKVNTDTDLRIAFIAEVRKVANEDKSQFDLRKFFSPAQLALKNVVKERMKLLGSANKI

[4] = molecular target: T4, Fructose-bisphosphate aldolase (Mycobacterium tuberculosis, UniProt P9WQA3)
T4 sequence (P9WQA3 whole entry): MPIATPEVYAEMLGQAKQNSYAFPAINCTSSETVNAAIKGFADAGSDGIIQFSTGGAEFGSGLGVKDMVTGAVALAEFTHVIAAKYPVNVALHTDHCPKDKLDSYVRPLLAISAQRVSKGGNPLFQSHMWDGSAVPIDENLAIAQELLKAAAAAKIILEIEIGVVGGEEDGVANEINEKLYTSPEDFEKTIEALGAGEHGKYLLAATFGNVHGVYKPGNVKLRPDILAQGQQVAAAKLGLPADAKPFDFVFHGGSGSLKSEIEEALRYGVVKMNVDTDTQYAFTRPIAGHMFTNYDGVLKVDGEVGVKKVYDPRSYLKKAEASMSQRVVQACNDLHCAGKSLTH

[5] = molecular target: T5, Fructose-bisphosphate aldolase class II (Yersinia pestis, UniProt A0A380PJR2)
T5 sequence (A0A380PJR2 whole entry): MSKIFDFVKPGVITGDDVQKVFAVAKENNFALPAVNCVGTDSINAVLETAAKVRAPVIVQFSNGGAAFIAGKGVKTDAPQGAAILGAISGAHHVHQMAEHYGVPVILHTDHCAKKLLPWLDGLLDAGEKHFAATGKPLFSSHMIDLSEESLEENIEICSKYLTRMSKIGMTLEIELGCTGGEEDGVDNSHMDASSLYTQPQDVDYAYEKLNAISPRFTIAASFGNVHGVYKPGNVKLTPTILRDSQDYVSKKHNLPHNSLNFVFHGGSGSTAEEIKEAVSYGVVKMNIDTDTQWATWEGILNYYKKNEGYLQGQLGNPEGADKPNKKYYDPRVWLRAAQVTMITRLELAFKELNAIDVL

With `O=C(COP(=O)(O)O)N(O)CCCCO` the Ki [1] was 0.3 µM and 0.297 µM.
`O=C(COP(=O)(O)O)N(O)CCCCOP(=O)(O)O` was tested, and the IC50 [1] was 0.0048 µM, the Ki [1] was 0.003 µM and 0.00325 µM and the IC50 [2] was 112 µM. It also gave an IC50 [3] of 0.131 µM, an IC50 [4] of 0.0032 µM and an IC50 [5] of 0.036 µM.
With `CCCCCCCCCCCC(=O)OCCCCN(O)C(=O)COP(=O)(O)O` the Ki [1] was 0.8 µM and 0.815 µM and the Ki [2] was 67 µM.
`CCCCCC(=O)OCCCCN(O)C(=O)COP(=O)(O)O` was tested, and the Ki [1] was 0.28 µM and 0.276 µM.
Compound `O=C(COP(=O)(O)O)[C@@H](O)[C@H](O)[C@H](O)COP(=O)(O)O` has a Ki [4] of 21 µM and a Ki [5] of 55 µM.
`O=C(COP(=O)(O)O)N(O)CCCO` was tested, and the Ki [2] was 2500 µM.
